Experimental findings from ChEMBL document CHEMBL6092160, “Discovery of novel third generation P-glycoprotein inhibitors bearing an azo moiety with MDR-reversing effect” (Eur J Med Chem, 2024) are described below.

pEC50, pIC50: −log10 of the molar value. Counter-ions that a name gives are not always drawn.

Data set [1] deals with K562/A02. Briefly: Cytotoxicity against human K562/A02 cells over expressing P-gp at 20 uM incubated for 72 hrs by CCK-8 assay. The format is toxicity, cell-based. The settings on record: k562/a02, 72 h.
Data set [2] concerns K562/A02. Briefly: Reversal of multi-drug resistance in human K562/A02 cells assessed as decrease in adriamycin IC50 preincubated with compound followed by ADR addition for 48 hrs. The format is functional, cell-based.
Data set [3] deals with K562/A02. Kind of data set: Antiproliferative activity against human K562/A02 cells assessed as reduction in cell viability incubated for 72 hrs by CCK-8 assay. The format is functional, cell-based. The settings on record: K562/A02, 72 h. On the technique in general: Tetrazolium assays rely on reduction of a dye to a coloured formazan, in cell work by metabolically active cells.

The target of data set [4] is T1, ATP-dependent translocase ABCB1 (Homo sapiens, UniProt P08183). Briefly: Inhibition of P-glycoprotein in human K562/A02 cells assessed as accumulation of rhodamine incubated for 4 hrs by flow cytometric analysis. The settings on record: k562/a02, 4 h, at 0.5 to 8 µM, dose 0.5-8 µM. The format is cell-based. (In general: A flow cytometer gives signals particle by particle.)
T1 sequence (P08183 whole entry): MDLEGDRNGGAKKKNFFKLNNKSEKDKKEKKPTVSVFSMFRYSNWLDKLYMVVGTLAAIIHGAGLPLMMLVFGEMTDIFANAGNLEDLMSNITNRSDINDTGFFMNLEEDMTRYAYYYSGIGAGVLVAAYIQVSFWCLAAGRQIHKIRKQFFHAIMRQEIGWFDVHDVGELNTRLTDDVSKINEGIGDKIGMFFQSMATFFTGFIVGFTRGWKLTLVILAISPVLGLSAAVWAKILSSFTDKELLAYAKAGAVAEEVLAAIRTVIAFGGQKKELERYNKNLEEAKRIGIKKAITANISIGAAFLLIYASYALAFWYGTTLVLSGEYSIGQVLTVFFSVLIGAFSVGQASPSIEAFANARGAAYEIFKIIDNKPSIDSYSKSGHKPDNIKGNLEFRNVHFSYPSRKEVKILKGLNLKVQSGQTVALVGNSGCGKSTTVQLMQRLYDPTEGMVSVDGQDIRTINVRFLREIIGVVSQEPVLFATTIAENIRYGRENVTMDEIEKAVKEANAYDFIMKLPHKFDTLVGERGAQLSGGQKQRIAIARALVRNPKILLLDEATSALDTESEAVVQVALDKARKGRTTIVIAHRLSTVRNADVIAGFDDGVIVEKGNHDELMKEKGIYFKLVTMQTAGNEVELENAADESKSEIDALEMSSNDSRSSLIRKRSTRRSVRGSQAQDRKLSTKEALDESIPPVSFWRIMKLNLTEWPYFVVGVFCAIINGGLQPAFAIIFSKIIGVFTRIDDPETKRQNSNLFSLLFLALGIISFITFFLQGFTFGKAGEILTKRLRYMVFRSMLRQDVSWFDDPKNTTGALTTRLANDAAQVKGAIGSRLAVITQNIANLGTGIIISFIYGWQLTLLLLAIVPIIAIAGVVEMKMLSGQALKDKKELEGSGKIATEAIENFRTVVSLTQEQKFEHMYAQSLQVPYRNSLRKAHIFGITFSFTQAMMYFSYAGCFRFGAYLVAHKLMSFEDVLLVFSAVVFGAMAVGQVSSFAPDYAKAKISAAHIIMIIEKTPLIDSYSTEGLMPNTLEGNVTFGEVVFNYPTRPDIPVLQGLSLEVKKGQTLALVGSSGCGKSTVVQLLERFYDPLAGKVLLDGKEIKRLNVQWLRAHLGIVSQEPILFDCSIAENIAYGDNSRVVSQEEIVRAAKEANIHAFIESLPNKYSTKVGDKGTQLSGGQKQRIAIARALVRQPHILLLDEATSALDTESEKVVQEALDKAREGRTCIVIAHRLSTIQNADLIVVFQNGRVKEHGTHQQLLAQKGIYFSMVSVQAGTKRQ

The test system of data set [5] is K562/A02. Kind of data set: Effect on P-glycoprotein expression at protein level in human K562/A02 cells at 0.5 to 8.0 uM incubated for 24 hrs by Western blot analysis. The format is functional, cell-based. The settings on record: dose 0.5-8 µM. For orientation: Immunoblotting shows a protein as a band on a membrane.
Data set [6] has as its system K562/A02. Briefly: Effect on P-glycoprotein expression at mRNA level in human K562/A02 cells at 0.5 to 8.0 uM by q-PCR analysis. The format is functional, cell-based. The note with it: dose 0.5-8 µM.
In data set [7] the target is T1, ATP-dependent translocase ABCB1. Briefly: Induction of thermal stabilization of P-glycoprotein in human K562/A02 cells at 50 uM under 25 to 61 degreeC incubated for 1 hrs by CETSA based Western blot analysis. The format is cell-based. The settings on record: k562/a02, 1 h.

What is called pEC50 is the EC50 on a negative log10 scale, so that one unit is a factor of ten. A word on the pIC50: it is the IC50 on a negative log10 scale, so that one unit is a factor of ten.

Regarding `COc1ccc(C(=O)Nc2ccccc2/N=N/c2ccc(CCN3CCc4cc(OC)c(OC)cc4C3)cc2)cc1OC`, the Activity entry in the data set on K562/A02 [1] is listed as “Non-toxic”.

Consider `COc1cc2c(cc1OC)CN(CCc1ccc(/N=N/c3ccccc3NC(=O)c3ccc(C)c(C)c3)cc1)CC2`, for which the Activity entry in the data set with K562/A02 [1] was “Non-toxic”.

For the compound `COc1cc2c(cc1OC)CN(CCc1ccc(/N=N/c3ccccc3NC(=O)c3ccccc3)cc1)CC2`, in the data set with K562/A02 [1], the Activity result was “Non-toxic”.

Consider `COc1ccc(C(=O)Nc2ccccc2/N=N/c2ccc(CCN3CCc4cc(OC)c(OC)cc4C3)cc2)cc1`, for which the Activity result in the data set with K562/A02 [1] was “Non-toxic”.

With `COc1cc2c(cc1OC)CN(CCc1ccc(/N=N/c3ccccc3NC(=O)c3ccccc3Cl)cc1)CC2`, the Activity entry with K562/A02 [1] was “Non-toxic”.

For the compound `COc1cc2c(cc1OC)CN(CCc1ccc(NC(=O)c3ccccc3/N=N/c3cccc(Cl)c3)cc1)CC2`, the Activity entry in the data set with K562/A02 [1] is “Non-toxic”.

As to `COc1cc2c(cc1OC)CN(CCc1ccc(NC(=O)c3ccccc3/N=N/c3ccc(C)cc3)cc1)CC2`, the Activity result in the data set on K562/A02 [1] is listed as “Non-toxic”.

As for `COc1cc2c(cc1OC)CN(CCc1ccc(/N=N/c3ccccc3NC(=O)c3ccc(C)cc3)cc1)CC2`, the Activity result with K562/A02 [1] was “Non-toxic”.

With `COc1cc2c(cc1OC)CN(CCc1ccc(/N=N/c3ccccc3NC(=O)c3ccc(F)c(F)c3)cc1)CC2`, in the data set with K562/A02 [1], the Activity entry is on record as “Non-toxic”.

As to `COc1cc2c(cc1OC)CN(CCc1ccc(/N=N/c3ccccc3NC(=O)c3ccc(C(C)(C)C)cc3)cc1)CC2`, the Activity entry with K562/A02 [1] is listed as “Non-toxic”.

With `COc1ccc(C(=O)Nc2ccccc2C(=O)Nc2ccc(CCN3CCc4cc(OC)c(OC)cc4C3)cc2)cc1OC`, the pEC50 in the data set on K562/A02 [2] is 7.53.

For `COc1cc2c(cc1OC)CN(CCc1ccc(NC(=O)c3ccccc3/N=N/c3ccc(Cl)cc3)cc1)CC2`, the Activity entry in the data set on K562/A02 [1] is reported as “Non-toxic”.

For the compound `COc1cc2c(cc1OC)CN(CCc1ccc(/N=N/c3ccccc3NC(=O)c3cc(OC)c(OC)c(OC)c3)cc1)CC2`, the Activity entry with K562/A02 [1] is recorded as “Non-toxic”.

Turning to `COc1cc2c(cc1OC)CN(CCc1ccc(/N=N/c3ccccc3NC(=O)c3cccc([N+](=O)[O-])c3)cc1)CC2`, the Activity result in the data set with K562/A02 [1] is “Non-toxic”.

As for `COc1cc2c(cc1OC)CN(CCc1ccc(/N=N/c3ccccc3NC(=O)c3cccc(Cl)c3)cc1)CC2`, the Activity entry with K562/A02 [1] was “Non-toxic”.

As to `COc1ccccc1/N=N/c1ccccc1C(=O)Nc1ccc(CCN2CCc3cc(OC)c(OC)cc3C2)cc1`, the Activity entry in the data set on K562/A02 [1] was “Non-toxic”.

Regarding `COc1cccc2c1C(=O)c1c(O)c3c(c(O)c1C2=O)C[C@@](O)(C(=O)CO)C[C@@H]3O[C@H]1C[C@H](N)[C@H](O)[C@H](C)O1` [DOXORUBICIN HYDROCHLORIDE], the pIC50 in the data set with K562/A02 [3] was 5.66.

In the case of `COc1cc2c(cc1OC)CN(CCc1ccc(/N=N/c3ccccc3NC(=O)c3ccccc3[N+](=O)[O-])cc1)CC2`, the Activity result in the data set with K562/A02 [1] is recorded as “Non-toxic”.

`COc1cc2c(cc1OC)CN(CCc1ccc(/N=N/c3ccccc3NC(=O)c3ccc(Cl)cc3)cc1)CC2`: in the data set with K562/A02 [1], the Activity result was “Non-toxic”.

On to `COc1cccc(C(=O)Nc2ccccc2/N=N/c2ccc(CCN3CCc4cc(OC)c(OC)cc4C3)cc2)c1`, for which, in the data set on K562/A02 [1], the Activity result is “Non-toxic”.

`COc1cc2c(cc1OC)CN(CCc1ccc(/N=N/c3ccccc3NC(=O)c3ccccc3OC)cc1)CC2`: the “inhibition (INH)” value in data set [4] is “Dose-dependent-effect”. Also, the Activity result is on record as “Active; Little Effect Of Compound Observed” in the data set on K562/A02 [5], “Non-toxic” with K562/A02 [1], “Active; Little Effect Of Compound Observed” with K562/A02 [6] and “Active” in data set [7]. Moreover, in the data set on K562/A02 [2], the pEC50 was 6.92.

As for `COc1cc2c(cc1OC)CN(CCc1ccc(NC(=O)c3ccccc3/N=N/c3ccccc3)cc1)CC2`, the Activity result in the data set on K562/A02 [1] is “Non-toxic”.

For `COc1cc2c(cc1OC)CN(CCc1ccc(/N=N/c3ccccc3NC(=O)c3ccc(Cl)c(Cl)c3)cc1)CC2`, the Activity entry in the data set on K562/A02 [1] is “Non-toxic”.

Turning to `COc1cc2c(cc1OC)CN(CCc1ccc(/N=N/c3ccccc3NC(=O)c3ccc([N+](=O)[O-])cc3)cc1)CC2`, the Activity entry with K562/A02 [1] is “Non-toxic”.
